We go through four compounds from article PMC11079064, “Discovery of a brain penetrant small molecule antagonist targeting LPA1 receptors to reduce neuroinflammation and promote remyelination in multiple sclerosis” (Scientific Reports, 2024).

Data set [1] has as its system ROCK (Rho-associated kinase). More on the design: method as in PMID 25289646. Conditions: cited from earlier work.
Another data set deals with microglia. Description: LPA-induced microglial activation in hippocampal slices. Conditions: AM152, 10 µM LPA. The data set is classed as cell-based, mouse. Here is the method: Microglial activation was then triggered by the addition of 10 µM LPA, slices incubated for 3 additional hours, then fixed. Slices were immunostained against IBA1 and microglial perimeters were measured as a mean of differentiating between ramified/resting versus rounded/activated microglia.
Brains were harvested from mice (postnatal day 20, Charles River). […] 400 µm thick coronal slices were cut on a McIlwain tissue chopper and returned to dissection media and separated manually. […] Slices were incubated for 2 h at 37 °C (4 slices per condition). Microglial activation was initiated by adding LPA (18:1, Avanti Polar Lipids) to a final concentration of 10 µM and incubated for 3 h. Slices were then fixed in formalin and for 2 h.
For immunohistochemistry, slices were washed for 3 × 15 min in 0.5% Triton-X100 and DPBS. Slices were then stained using IBA-1 antibody (Thermo Scientific) in 10% normal goat serum with 0.5% Triton-X100 in DPBS overnight on a rocker. Slices were then washed in 0.5% Triton-X100 in DPBS 3 × 15 min. Goat anti-mouse Alexa 564 (1:500, Invitrogen, Carlsbad, CA) and […] (Invitrogen, Carlsbad, CA) were diluted in DPBS with 0.5% Triton-X100 and incubated for 2h. Slices were washed 3 × 15 min in DPBS with 0.5% Triton-X100, mounted with Fluoromount and imaged on a Nikon A1R confocal microscope.

Details of data set [2]: method as in PMID 34969771, PMID 30201408. Conditions: cited from earlier work.
The target in the next data set is T1, autotaxin (Rattus norvegicus, UniProt Q64610).
T1 construct: Male Sprague Dawley rat macrophages were isolated from intraperitoneal lavage fluid; endogenous in cells; host or cells: primary rat peritoneal macrophages
Description: LPA species in macrophage-conditioned media. It counts as cell-based. The conditions noted are these: 1 µM, 48 h. Here is the method: Autotaxin (ATX), an enzyme responsible for LPA synthesis, is elevated in CSF samples from multiple sclerosis patients and may be an underlying source of elevated LPA levels in the CNS during disease. […] To confirm the release of LPA from these macrophages, macrophage-conditioned media was taken 30 min or 48 h after plating and various LPA species were measured by mass spectrometry.
Rat macrophages were cultured as described above. Media from wells at 30 m or 48 h post-plating were taken. Media from macrophages treated with 1 µM PF-8380 (autotaxin inhibitor, Sigma, St Louis, MO) for 48 h was also collected. For LPA determination, 20 µl of culture media was aliquoted into glass 12 × 75 mm culture test tubes. 500 µl of 30 mM citric acid/40 mM disodium phosphate buffer (pH 4.0) with 1 ng/ml 17:0 LPA as an internal standard (IS) were also added to the test tubes. 2 ml of 1-butanol were then added to the test tubes, tubes covered with parafilm, vortexed for 10 s, and centrifuged for 10 min at 1000g at 4 °C. After centrifugation, the top layers were transferred to clean test tubes. The bottom layers were extracted again with 1 ml of water-saturated butanol. The test tubes were covered with parafilm, vortexed for 10 s, and centrifuged for 10 min at 1000g at 4 °C. […] After reconstitution, the samples were analyzed by LC–MS/MS using an AB Sciex 6500 + . […]

Entries after “also recorded” stand apart in the source; their conditions may differ.

Take `O=S(=O)(c1cccc2cnccc12)N1CCCNCC1` [fasudil]: the “effect on OPC differentiation” value in data set [1] is listed as “leads to OPC differentiation”. Regarding `Cc1noc(-c2ccc(-c3ccc(C4(C(=O)O)CC4)cc3)cc2)c1NC(=O)O[C@H](C)c1ccccc1` [AM152, reference compound], the “effect on LPA-induced decrease in microglial perimeter length” value with microglia is recorded as “inhibits microglial activation; also recorded: inhibited”. For the same compound, the “Phase 1 tolerability” value in data set [2] is “demonstrated Phase 1 tolerability”. Turning to `CCCN(C)C(=O)OCc1c(-c2ccc(O[C@H]3CCC[C@H](C(=O)O)C3)c(C)n2)nnn1C` [BMS-986278], the “Phase 1 tolerability” value in data set [2] is “demonstrated Phase 1 tolerability”. `O=C(CCN1CCN(C(=O)OCc2cc(Cl)cc(Cl)c2)CC1)c1ccc2[nH]c(=O)oc2c1` [PF-8380]: at autotaxin, the “effect on increase of LPA species in macrophage-conditioned media” value is listed as “prevents the induction of several LPA species; also recorded: inhibited”.
